Experimental data as given in publication PMC7673538 (PLoS Biology, 2020).
“And” between values parts separate entries of the source, which are not always exact repeats. Equal entries are not always repeated. Where two headings read alike, the source gives them in different places.

What was measured:
[1] = biological target: T1, human DAT (Homo sapiens, UniProt Q01959); assay type: cell-based; conditions: for DAT, Mean (Figure 8B): Control = 100
T1 construct: expressed in transfected cells; host or cells: HEK293 (gift of Dr. Hoener, F. Hoffmann-La Roche)

[2] = tested on: EV-A71; assay: microbe, parasite or virus in culture; assay type: cell-based, enterovirus A71
[3] = tested on: CV-A24v; assay: microbe, parasite or virus in culture; assay type: cell-based, coxsackievirus A24v
[4] = tested on: CV-A24; assay: microbe, parasite or virus in culture; assay type: cell-based, coxsackievirus A24; conditions: Enterovirus C, CVA24, HeLa R19, read-out: EC50 CV-A24
[5] = tested on: representative EVs and RVs; assay type: cell-based
[6] = tested on: CV-B3; assay: microbe, parasite or virus in culture; assay type: cell-based, coxsackievirus B3
[7] = biological target: T2, human SERT (Homo sapiens, UniProt P31645); assay type: cell-based; conditions: for SERT, Mean (Figure 8B): Control = 100.00; for SERT, Mean as % (Figure 8B): Control = 100%
T2 construct: expressed in transfected cells; host or cells: HEK293 (gift of Dr. Hoener, F. Hoffmann-La Roche)

[8] = tested on: HRV-A2; assay: microbe, parasite or virus in culture; assay type: cell-based, human rhinovirus

T1 sequence (Q01959 whole entry): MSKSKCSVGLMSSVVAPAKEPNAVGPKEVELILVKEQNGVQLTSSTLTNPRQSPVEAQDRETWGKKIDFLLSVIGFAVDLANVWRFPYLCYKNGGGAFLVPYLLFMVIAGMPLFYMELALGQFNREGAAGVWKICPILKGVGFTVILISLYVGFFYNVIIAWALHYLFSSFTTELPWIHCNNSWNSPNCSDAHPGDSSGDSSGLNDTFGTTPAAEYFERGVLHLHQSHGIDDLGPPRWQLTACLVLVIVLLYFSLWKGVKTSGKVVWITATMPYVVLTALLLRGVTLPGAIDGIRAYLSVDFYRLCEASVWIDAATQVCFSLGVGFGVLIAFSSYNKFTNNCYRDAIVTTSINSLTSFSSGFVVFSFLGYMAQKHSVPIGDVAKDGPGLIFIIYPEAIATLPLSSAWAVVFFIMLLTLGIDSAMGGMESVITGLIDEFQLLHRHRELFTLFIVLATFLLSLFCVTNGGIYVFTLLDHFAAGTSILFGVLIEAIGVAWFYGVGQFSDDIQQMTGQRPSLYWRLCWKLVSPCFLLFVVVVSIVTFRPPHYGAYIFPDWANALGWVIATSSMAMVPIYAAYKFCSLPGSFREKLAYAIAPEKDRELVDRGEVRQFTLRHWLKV
T2 sequence (P31645 whole entry): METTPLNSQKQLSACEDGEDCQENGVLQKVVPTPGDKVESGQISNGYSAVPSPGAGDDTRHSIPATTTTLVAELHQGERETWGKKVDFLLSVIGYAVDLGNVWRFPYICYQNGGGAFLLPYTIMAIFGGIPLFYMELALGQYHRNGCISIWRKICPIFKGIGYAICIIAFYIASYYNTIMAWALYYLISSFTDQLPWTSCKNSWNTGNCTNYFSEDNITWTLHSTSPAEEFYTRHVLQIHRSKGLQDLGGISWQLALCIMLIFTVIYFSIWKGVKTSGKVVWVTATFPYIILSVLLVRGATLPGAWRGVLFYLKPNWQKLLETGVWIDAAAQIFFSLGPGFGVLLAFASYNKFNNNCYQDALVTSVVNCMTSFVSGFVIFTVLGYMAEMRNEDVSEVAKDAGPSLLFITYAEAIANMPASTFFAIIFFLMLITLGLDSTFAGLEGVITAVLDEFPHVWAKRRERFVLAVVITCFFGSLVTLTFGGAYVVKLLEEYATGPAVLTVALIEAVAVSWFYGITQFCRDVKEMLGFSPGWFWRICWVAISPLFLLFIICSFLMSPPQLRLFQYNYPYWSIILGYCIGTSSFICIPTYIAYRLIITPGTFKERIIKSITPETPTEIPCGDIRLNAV

## O=C(c1cc[nH]c1)N(Cc1ccc(F)cc1)c1ccccc1 [Compound 12b, N-(4-Fluorobenzyl)-N-phenyl-1H-pyrrole-3-carboxamide]
[1]; 1µM
  DAT, Mean (Figure 8B): 98.697
[1]; 1µM, Control = 100%
  DAT, Mean as % (Figure 8B): 103%
[1]; 100µM
  DAT, Mean (Figure 8B): 90.1253
[1]; HEK293 cells expressing human DAT, 1 μM or 100 μM
  inhibition of DAT function (in words): neither 12a, 19b, 19d, nor the combined compound 12b inhibited
[2]; Concentration 0.0046 µM
  Figure 7 dose-response raw data, EV-A71 (triplicate values): 8.524 and 14.1813 and 13.8349
[2]; Concentration 0.0137 µM
  Figure 7 dose-response raw data, EV-A71 (triplicate values): 8.178 and 10.6023 and 11.4104
[2]; Concentration 0.0412 µM
  Figure 7 dose-response raw data, EV-A71 (triplicate values): 8.755 and 10.1405 and 13.8349
[2]; Concentration 0.1235 µM
  Figure 7 dose-response raw data, EV-A71 (triplicate values): 8.6396 and 9.794 and 10.7177
[2]; Concentration 0.3704 µM
  Figure 7 dose-response raw data, EV-A71 (triplicate values): 31.7298 and 16.0285 and 26.5345
[2]; Concentration 1.1111 µM
  Figure 7 dose-response raw data, EV-A71 (triplicate values): 89.9407 and 116.561 and 102.065
[2]; Concentration 3.3333 µM
  Figure 7 dose-response raw data, EV-A71 (triplicate values): 91.1267 and 117.088 and 97.8476
[2]; Concentration 11.1111 µM
  Figure 7 dose-response raw data, EV-A71 (triplicate values): 100.747 and 119.064 and 107.468
[2]; Concentration 33.3333 µM
  Figure 7 dose-response raw data, EV-A71 (triplicate values): 107.747 and 119.064 and 117.468
[2]; Concentration 100 µM
  Figure 7 dose-response raw data, EV-A71 (triplicate values): 110.747 and 119.064 and 107.468
[2]; Enterovirus A, EVA71, HeLa R19, read-out: Table in Figure 7A, EV-A71, AVERAGE
  EC50: 490 nM
[3]; Concentration 0.0046 µM
  Figure 7 dose-response raw data, CV-A24v (triplicate values): 11.045 and 11.5939
[3]; Concentration 0.0137 µM
  Figure 7 dose-response raw data, CV-A24v (triplicate values): 14.0988 and 16.3593 and 16.4783
[3]; Concentration 0.0412 µM
  Figure 7 dose-response raw data, CV-A24v (triplicate values): 14.0988 and 16.3593 and 16.4783
[3]; Concentration 0.1235 µM
  Figure 7 dose-response raw data, CV-A24v (triplicate values): 14.8126 and 12.909 and 19.2147
[3]; Concentration 0.3704 µM
  Figure 7 dose-response raw data, CV-A24v (triplicate values): 14.8126 and 13.6228 and 22.1892
[3]; Concentration 1.1111 µM
  Figure 7 dose-response raw data, CV-A24v (triplicate values): 14.8126 and 13.6228 and 22.1892
[3]; Concentration 3.3333 µM
  Figure 7 dose-response raw data, CV-A24v (triplicate values): 106.3 and 102.374 and 110.232
[3]; Concentration 11.1111 µM
  Figure 7 dose-response raw data, CV-A24v (triplicate values): 105.473 and 108.334 and 112.487
[3]; Concentration 33.3333 µM
  Figure 7 dose-response raw data, CV-A24v (triplicate values): 98.3206 and 97.0611 and 97.1756
[3]; Concentration 100 µM
  Figure 7 dose-response raw data, CV-A24v (triplicate values): 82.2926 and 86.3728 and 89.8506
[3]; Coxsackievirus, HeLa R19, read-out: Table in Figure 7A, CVA24v, AVERAGE
  EC50: 1340 nM
[3]; Coxsackievirus, HeLa R19, read-out: Table in Figure 7A, CVA24v, exp1-exp3
  EC50: 1110 nM
[3]; read-out: Table in Figure 7A, CVA24v, exp1-exp3
  EC50: 1230 nM and 1670 nM
[4]
  EC50: 1330 ± 240 nM
[5]
  spectrum of antiviral activity (in words): improved antiviral profile against all tested viruses
[6]; Concentration 0.001 µM
  Figure 7 dose-response raw data, CV-B3 (triplicate values): 12.7273 and 16.4436 and 14.7652
[6]; Concentration 0.0046 µM
  Figure 7 dose-response raw data, CV-B3 (triplicate values): 88.2521 and 78.519 and 79.7121
[6]; Concentration 0.0137 µM
  Figure 7 dose-response raw data, CV-B3 (triplicate values): 101.732 and 101.506 and 105.007
[6]; Concentration 0.0412 µM
  Figure 7 dose-response raw data, CV-B3 (triplicate values): 102.861 and 101.167 and 103.426
[6]; Concentration 0.1235 µM
  Figure 7 dose-response raw data, CV-B3 (triplicate values): 99.9247 and 100.263 and 102.748
[6]; Concentration 0.3704 µM
  Figure 7 dose-response raw data, CV-B3 (triplicate values): 101.957 and 103.877 and 102.635
[6]; Concentration 1.1111 µM
  Figure 7 dose-response raw data, CV-B3 (triplicate values): 101.393 and 99.9247 and 103.426
[6]; Concentration 3.3333 µM
  Figure 7 dose-response raw data, CV-B3 (triplicate values): 102.974 and 100.151 and 104.555
[6]; Concentration 10 µM
  Figure 7 dose-response raw data, CV-B3 (triplicate values): 101.167 and 95.9721 and 104.668
[6]; Enterovirus B, CVB3, HeLa R19, read-out: Table in Figure 7A, CV-B3, AVERAGE
  EC50: 2.9 nM
[6]; Enterovirus B, CVB3, HeLa R19, read-out: Table in Figure 7A, CV-B3, exp1-exp3
  EC50: 2.98 nM
[6]; read-out: Table in Figure 7A, CV-B3, exp1-exp3
  EC50: 3.2 nM and 2.55 nM
[7]; 1µM
  SERT, Mean (Figure 8B): 88.76
  SERT, Mean as % (Figure 8B): 89%
[7]; 100µM
  SERT, Mean (Figure 8B): 102.47
  SERT, Mean as % (Figure 8B): 102%
[7]; HEK293 cells expressing human SERT, 1 and 100 μM
  inhibition of SERT-mediated uptake (in words): neither 12a, 19b, 19d, nor the combined compound 12b inhibited
[8]; Concentration 0.0046 µM
  Figure 7 dose-response raw data, HRV-A2 (triplicate values): 14.2402 and 14.6225 and 13.0933
[8]; Concentration 0.0137 µM
  Figure 7 dose-response raw data, HRV-A2 (triplicate values): 14.2402 and 14.6225 and 13.0933
[8]; Concentration 0.0412 µM
  Figure 7 dose-response raw data, HRV-A2 (triplicate values): 15.1004 and 21.3125 and 13.3801
[8]; Concentration 0.1235 µM
  Figure 7 dose-response raw data, HRV-A2 (triplicate values): 12.6155 and 13.1889 and 12.7111
[8]; Concentration 0.3704 µM
  Figure 7 dose-response raw data, HRV-A2 (triplicate values): 13.0933 and 13.1889 and 13.7623
